In patent publication US11053204B2, “Pyrimidinyloxy benzene derivatives as herbicides” (FMC Corporation, priority 2015, dated 2021):

Assays:
Assay type in all cases: in vivo
[1] = system: pigweed (Amaranthus retroflexus); test: Test C postemergence, plant response rating; conditions: for pest or weed control at 16 g/ha / pest or weed control at 31 g/ha / pest or weed control at 62 g/ha / pest or weed control at 125 g/ha: Amaranthus retroflexus, post-emergence; for pest or weed control at 16 g/ha / pest or weed control at 31 g/ha / Plant response rating, Pigweed: scale 0 to 100; for pest or weed control at 62 g/ha / pest or weed control at 125 g/ha / Pigweed plant response rating: scale 0 to 100 (0 no effect, 100 complete control)
Summary of the method: (§1)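 After sowing in loam–sand blend or silt loam, pots were sprayed preemergence; separately grown 1- to 4-leaf plants were sprayed postemergence. Following 13 to 15 d under greenhouse conditions, injury was rated visually on a 0 to 100 scale.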

[2] = system: johnsongrass (Sorghum halepense); test: Test C postemergence, plant response rating; conditions: for Plant response rating, Johnsongrass: scale 0 to 100; for Johnsongrass plant response rating: scale 0 to 100 (0 no effect, 100 complete control)
Summary of the method: as §1

[3] = system: johnsongrass (Sorghum halepense); test: Test C preemergence, plant response rating
[4] = system: barnyardgrass (Echinochloa crus-galli); test: Test C preemergence, plant response rating; conditions: Preemergence

SMILES	pest or weed control at 16 g/ha ([1]; 16 g ai/ha) [%]	pest or weed control at 31 g/ha ([1]; 31 g ai/ha) [%]	pest or weed control at 62 g/ha ([1]; 62 g ai/ha) [%]	pest or weed control at 125 g/ha ([1]; 125 g ai/ha) [%]	Plant response rating, Johnsongrass ([2]; 16 g ai/ha)	Plant response rating, Johnsongrass ([2]; 31 g ai/ha)	Johnsongrass plant response rating ([2]; 62 g ai/ha)	Johnsongrass plant response rating ([2]; 125 g ai/ha)	Plant response rating, Johnsongrass ([3]; 16 g ai/ha, scale 0 to 100)	Plant response rating, Johnsongrass ([3]; 31 g ai/ha, scale 0 to 100)	Plant response rating, Johnsongrass ([3]; 62 g ai/ha, scale 0 to 100)	Plant response rating, Johnsongrass ([3]; 125 g ai/ha, scale of 0 to 100)	Plant response rating, Pigweed ([1]; 16 g ai/ha)	Plant response rating, Pigweed ([1]; 31 g ai/ha)	Pigweed plant response rating ([1]; 62 g ai/ha)	Pigweed plant response rating ([1]; 125 g ai/ha)	further results
O=C(OCC(F)(F)C(F)(F)F)c1c(Br)cccc1Oc1ncc(Cl)cn1 [Compound 23, 2,2,3,3,3-pentafluoropropyl 2-bromo-6-[(5-chloro-2-pyrimidinyl)oxy]benzoate]	60	75	70	85	0	15	15	20									
O=C(OCCC(F)(F)F)c1c(Br)cccc1Oc1ncc(Cl)cn1 [Compound 26, 3,3,3-trifluoropropyl 2-bromo-6-[(5-chloro-2-pyrimidinyl)oxy]benzoate]	75	98	98	100	10	20	20	25	55	50	80	98					pest or weed control at 62 g/ha ([4]; Echinochloa crus-galli, pre-emergence, 62 g ai/ha, scale of 0 to 100): 100%; pest or weed control at 125 g/ha ([4]; Echinochloa crus-galli, pre-emergence, 125 g ai/ha, scale of 0 to 100): 100%; pest or weed control at 16 g/ha ([4]; Echinochloa crus-galli, pre-emergence, 16 g ai/ha, scale 0 to 100): 40%; pest or weed control at 31 g/ha ([4]; Echinochloa crus-galli, pre-emergence, 31 g ai/ha, scale 0 to 100): 75%
O=C(OCCC(F)(F)F)c1c(Br)cccc1Oc1ncc(Br)cn1 [Compound 33]					10	10	20	20	0	5	25	35	95	95	98	100	Plant response rating, Barnyardgrass ([4]; 62 g ai/ha, scale of 0 to 100): 95; Plant response rating, Barnyardgrass ([4]; 125 g ai/ha, scale of 0 to 100): 100; Plant response rating, Barnyardgrass ([4]; 16 g ai/ha, scale 0 to 100): 20; Plant response rating, Barnyardgrass ([4]; 31 g ai/ha, scale 0 to 100): 40
O=C(OCC(F)(F)F)c1c(Br)cccc1Oc1ncc(Cl)cn1 [Compound 35]					0	5	10	10					80	70	90	98	
